According to patent US6818446B2, “Compositions and methods for the analysis of mucin gene expression and identification of drugs having the ability to inhibit mucin gene expression” (The Regents of the University of California, priority 2001, dated 2004):
Entries after “also recorded” stand apart in the source; their conditions may differ.

Key:
MUC5B-b2 promoter = assay: Effect of culture conditions and retinoic acid on MUC5B-b2 promoter-reporter activity in primary human TBE cells; type: cell-based; conditions: retinoic acid 30 nM
Procedure: For studying the effects of culture conditions on the promoter-reporter gene activity, primary human TBE cultures were grown in 60 mm dishes and transfected with 1 μg of MUC5B promoter-luciferase construct DNA and 0.5 μg pSV-β-gal expression vector. One day following the transfection, cultures were passaged into either 35 mm tissue culture dishes or into collagen gel-coated 25 mm Transwell™ chambers (Coming-COSTAR Catalog Number 3506). Additionally, the cultures were maintained either in the absence or presence of supplemental all-trans-retinoic acid (30 nM). For Transwell™ cultures, chambers were maintained in an air-liquid interface for an additional three days. Cell extracts were prepared and luciferase and β-galactosidase activities were analyzed as described above. For each transfection, relative luciferase activity was expressed after normalization for β-galactosidase activity. The results are presented as a mean of relative activities from at least triplicate dishes, and data is collected from at least three independent experiments. Activity is expressed as units of luciferase activity per unit of β-gal activity (units/beta-gal). […] Results are expressed as “fold increase” of luciferase activity, comparing RA-treated and RA-untreated cultures, where the activity of the RA untreated culture is set to 1. […]

MUC5B message = assay: Northern blot analysis of MUC5B message in primary TBE cell cultures; conditions: primary human TBE cells, presence vs absence of 30 nM retinoic acid
MUC5B promoter [1] = assay: MUC5B-b2 luciferase reporter activity in primary TBE cultures derived from transgenic mice; type: cell-based; conditions: transgenic mouse TBE cells; cytokine 10 ng/ml, 7 days
Procedure: The transgenic mice described in EXAMPLE 9 were used to isolate TBE cells, which were maintained in culture. The TBE cells were maintained in three culture conditions, which were control (no supplement), with interleukin-6 (IL-6) at a concentration of 10 ng/ml or with IL-17 at a concentration of 10 ng/ml. The cells were maintained in the presence of the cytokines for 7 days, harvested and cell extracts were prepared as described in EXAMPLE 8. The luciferase activity in each cell extract was determined, and normalized for total protein concentration of the extract samples.

MUC5B promoter [2] = assay: Luciferase activity in stably transfected HBE1 cells carrying the MUC5B promoter reporter; type: cell-based, human; conditions: cytokine 10 ng/ml
Procedure: Experimental—The established cell line HBE1 was cultured in 35 mm dishes and grown to 60-80% confluence. These cells were cotransfected with either MUC-5B reporter construct and a second plasmid encoding the neomycin-resistance (neo) selectable marker. The chimeric reporter plasmids used in the transfections were purified using QIAGEN® plasmid isolation kits, and the cotransfections were done using Roche FuGENE 6™ transfection reagent (Roche Molecular Biochemicals, Indianapolis, Ind.) according to the manufacturer's instructions. In these transfections, 2.5 μg of MUC5B reporter plasmid DNA and 0.5 μg of the neomycin resistance marker plasmid per 35 mm culture dish were used for each transfection.
Following the cotransfection, cells were cultured for an additional 48 to 72 hours. At this time, the medium was replaced with fresh medium containing the neomycin analogue G-418 at a concentration of 100 μg/ml. The selection was maintained for approximately 21 days, at which time clones of resistant transfected cells were replated and maintained as continuous lines. Cell extracts were prepared and luciferase activity quantitated exactly as described in EXAMPLE 8, with the exception that cell extracts were normalized for total protein content, and not β-galactosidase activity. In addition, these cells were cultured in the absence or presence of IL-6 (10 ng/ml) or IL-17 (10 ng/ml).

Molecule	MUC5B-b2 reporter gene activity, RA-treated vs RA-untreated, tissue culture dishes (TC) (MUC5B-b2 promoter; TC)	MUC5B-b2 reporter gene activity, fold increase RA-treated vs RA-untreated, BICG conditions (MUC5B-b2 promoter; collagen gel-coated Transwell chambers, air-liquid interface)	levels of MUC5B message in BI and BICG cultures (MUC5B message; Transwell chambers (BI) or collagen gel-coated Transwell chambers (BICG))	levels of MUC5B message in TC and CG cultures (MUC5B message; tissue culture dishes (TC) or collagen gel coated dishes (CG))	MUC5B promoter activity (luciferase normalized for total protein) vs control without interleukin (MUC5B promoter [1])	luciferase reporter activity in presence vs absence of cytokine (MUC5B promoter [2])
CC1=C(/C=C/C(C)=C/C=C/C(C)=C/C(=O)O)C(C)(C)CCC1 [retinoic acid, all-trans-retinoic acid]	not affected	five-fold	greatly enhanced	unaffected	–	–
IL-6: pro-inflammatory cytokine interleukin-6 added to cell cultures	–	–	–	–	significant upregulation	strongly induced; also recorded: upregulated
IL-17: pro-inflammatory cytokine IL-17 added to cell cultures	–	–	–	–	significant upregulation	strongly induced; also recorded: upregulated
